Measured values as given in patent publication EP0371733A2, “Dopamine-beta-hydroxylase inhibitors” (SMITHKLINE BEECHAM CORPORATION, priority 1988, dated 1990).

Legend:
[1] = molecular target: T1, DBH (Homo sapiens, UniProt P09172); assay: in vitro DBH inhibition, conversion of tyramine to octopamine in the presence of DBH; assay type: biochemical; details: concentration at which DBH activity was halved; octopamine assayed by absorbence at 330 nm; read-out: DBH IC₅₀
T1 sequence (P09172 1-617): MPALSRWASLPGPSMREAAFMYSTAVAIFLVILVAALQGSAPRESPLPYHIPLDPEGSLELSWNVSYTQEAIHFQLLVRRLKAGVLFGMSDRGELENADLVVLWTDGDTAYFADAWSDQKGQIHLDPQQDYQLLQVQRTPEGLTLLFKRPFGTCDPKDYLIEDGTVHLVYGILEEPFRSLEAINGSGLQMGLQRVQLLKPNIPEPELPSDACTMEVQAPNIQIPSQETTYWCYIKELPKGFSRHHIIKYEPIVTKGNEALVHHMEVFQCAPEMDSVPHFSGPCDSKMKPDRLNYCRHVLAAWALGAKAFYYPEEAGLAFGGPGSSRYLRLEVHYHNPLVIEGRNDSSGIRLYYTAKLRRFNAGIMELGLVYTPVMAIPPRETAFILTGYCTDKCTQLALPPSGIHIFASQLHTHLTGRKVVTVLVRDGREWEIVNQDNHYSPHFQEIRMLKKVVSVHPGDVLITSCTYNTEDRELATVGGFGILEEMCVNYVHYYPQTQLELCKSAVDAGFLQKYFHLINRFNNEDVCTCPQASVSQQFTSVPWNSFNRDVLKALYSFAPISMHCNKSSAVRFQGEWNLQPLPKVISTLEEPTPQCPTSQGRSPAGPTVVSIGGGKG
Protocol: Listed in Table I are compounds of the invention that were tested for in vitro DBH inhibition by a standard procedure for assaying conversion of tyramine to octopamine in the presence of DBH. J.J. Pisano, et al., Biochim. Biophys. Acta, 43, 566-568 (1960). Octopamine was assayed following sodium periodate oxidation to p-hydroxybenzaldehyde by measuring spectrophotometric absorbence at 330 nm. In Table I, inhibition is given in molar concentration of compound at which DBH activity was halved (IC₅₀). Fusaric acid, by this test has an IC₅₀ of 8 x 10⁻⁷M.

[2] = test system: spontaneously hypertensive rats; assay: mean arterial blood pressure in spontaneously hypertensive rats; assay type: in vivo; details: 50 mg/kg intraperitoneally, vs vehicle-treated controls
Protocol: Further, spontaneously hypertensive rats were treated with 3-(3-fluorophenylmethyl)-2-thiazolidinethione at a dose of 50 mg/kg intraperitoneally, and mean arterial blood pressure was monitored for 250 minutes using indwelling cannulae in the tail arteries. […] The maximal blood pressure reduction was approximately 20 mmHg.

[3] = in vitro screen; Weiffen et al., 1967; cited from earlier work
[4] = Teresawa et al., 1971; cited from earlier work
[5] = molecular target: T1, DBH; details: Runti et al., 1980; cited from earlier work

Compound	IC50 [1] [µM]	tuberculostatic activity [3]	also measured
Fc1cc(F)cc(CN2CCSC2=S)c1 [3-(3,5-Difluorophenylmethyl)-2-thiazolidinethione]	13 ± 1		
Fc1cccc(CN2CCSC2=S)c1 [3-(3-Fluorophenylmethyl)-2-thiazolidinethione]	30 ± 3		maximal blood pressure reduction ([2]; mean arterial blood pressure monitored for 250 minutes): approximately 20 mmHg; time to significant blood pressure reductions following treatment [2]: ≤ 30 min
S=C1SCCN1Cc1ccccc1 [3-Phenylmethyl-2-thiazolidinethione]	72 ± 13	poor activity	
S=C1SCCN1CCc1ccccc1 [3-phenethylthiazolidinethione, reference compound]		poor activity	
CCCCc1ccc(C(=O)O)nc1 [Fusaric acid]			toxic effects [4]: hepatotoxic
phenylpicolinic acid			inhibitory activity relative to fusaric acid [5]: twice the inhibitory activity of fusaric acid
